{
  "source": "patent US20240174675A1",
  "about": "“SMALL MOLECULE REGULATORS OF ALVEOLAR TYPE 2 CELL PROLIFERATION FOR THE TREATMENT OF PULMONARY DISEASES” (THE SCRIPPS RESEARCH INSTITUTE, priority 2021, published 2024)",
  "test": "Pharmacokinetic profiling, plasma and lung levels after intratracheal or inhalation delivery in the mouse",
  "assay_type": "in vivo",
  "settings": "mouse; IT dosing at 2 mg/kg (FIG. 2); after 48 h",
  "data": [
    {"smiles": "COC(=O)c1nc(C(F)(F)F)n2c1CN(C(=O)C[C@H](N)Cc1cc(F)c(F)cc1F)CC2", "note": "[retagliptin, reference compound]", "values": [
      {"measurement": "level in the lung after 48 h", "result": "very low"}
    ]}
  ]
}
